According to patent US5541343A, “Cyclic imino derivatives and pharmaceutical compositions containing them” (Karl Thomae GmbH, priority 1990, dated 1996):
Structures can show the parent of a compound that is named as a salt.

Legend:
human thrombocytes = assay: Fibrinogen binding to human thrombocytes; settings: gel-filtered platelets, 125-J-fibrinogen, 20 minutes at ambient temperature; read-out: Fibrinogen binding test IC50
Experimental: 1. Fibrinogen binding to human thrombocytes
Blood obtained by puncture of an antecubital vein is anticoagulated with trisodium citrate (final concentration: 13 mM) and centrifuged for 10 minutes at 170 g. The supernatant platelet-rich plasma is placed on a Sepharose 2B column (Pharmacia) and eluted with a solution of 90 mM common salt, 14 mM trisodium citrate, 5 mM glucose and 50 mM tris(hydroxymethyl)aminomethane, adjusted to pH 7.4. The gel-filtered platelets (GFP) appearing in front of the plasma proteins are used for the binding tests.
50 μl of a 60 mM calcium chloride solution, 50 μl of a 0.6 mM adenosine diphosphate solution, 100 μl of substance solution or solvent and 50 μl of fibrinogen solution (containing 3 μg 125-J-fibrinogen) are added to 750 μl of GFP and incubated for 20 minutes at ambient temperature. The non-specific binding is measured in the presence of 3 mg/ml of cold fibrinogen.
900 μl of the incubate are carefully pipetted onto 250 μl of silicon oil (AP 38: AR 20, 1:2 v/v, Wacker Chemie) in Eppendorf vessels and centrifuged for 2 minutes at 10,000 g. The aqueous supernatant and some of the oil are removed, the tip of the vessel with the platelet pellet is cut off and the quantity of bound fibrinogen is measured in a gamma-counter. The concentration of substance which inhibits fibrinogen binding by 50% is calculated from a concentration series and given as the IC50.

platelet aggregation = assay: Antithrombotic effect: collagen-induced platelet aggregation (Born and Cross method) in platelet-rich plasma; type: cell-based; settings: Homo sapiens, 10 minutes preincubation at 37° C., 50% change in optical density, read-out: Inhibition of platelet aggregation EC50
Experimental: The thrombocyte aggregation is measured by the Born and Cross method (J. Physiol. 170: 397 (1964)) in platelet-rich plasma from healthy test subjects. To inhibit coagulation, 3.14% sodium citrate is added to the blood in a ratio by volume of 1:10.
Collagen-induced aggregation
The curve of the decrease in optical density of the platelet suspension is measured and recorded photometrically after the addition of the aggregation-inducing substance. The speed of aggregation is determined from the angle of inclination of the density curve. The point on the curve where maximum transmittance occurs is used to calculate the optical density.
The quantity of collagen is made as small as possible but sufficient to produce an irreversible reaction curve. Standard commercial collagen made by Hormonchemie of Munich is used. Before the addition of collagen, the plasma is incubated for 10 minutes with the substance at 37° C.
From the measurements obtained, an EC50 is determined graphically relating to a 50% change in the optical density in the sense of an inhibition of aggregation.

[1] = system: collagen-induced thrombocyte aggregation; assay: Collagen-induced thrombocyte aggregation ex vivo in rhesus monkeys following oral administration; settings: 1 mg/kg
Experimental: Moreover, the compound of Example 70(1), for example, inhibits collagen-induced thrombocyte aggregation ex vivo in rhesus monkeys following oral administration of 1 mg/kg for more than 8 hours.

[2] = Approximate LD50 in rats (tolerability); settings: rat, in vivo, after intravenous route
Experimental: The new compounds are well tolerated since the approximate LD50 in rats is, for example, for the compound of Example (3) above 100 mg/kg after intravenous route and for the compound of Example 70(1) above 2.000 mg/kg after oral administration.

| SMILES | IC50 (human thrombocytes) | EC50 (platelet aggregation) | inhibits collagen-induced thrombocyte aggregation ex vivo (duration of inhibition) [1] | LD50 [2] |
| --- | --- | --- | --- | --- |
| N=C(N)c1ccc(-c2ccc(OC[C@H]3CNC(=O)[C@@H]3CC(=O)O)cc2)cc1 (relative stereo) [7(89), (3R,S;4R,S)-4-[(4'-amidino-4-biphenylyl)oxymethyl]-3-carboxymethyl-2-pyrrolidinone] | 230 nM | 2800 nM |  |  |
| N=C(N)NCCCCCOc1ccc([C@@H]2C[C@@H](CC(=O)O)C(=O)N2CCCc2ccccc2)cc1 (relative stereo) [31(1), (3S,R;5S,R)-3-carboxymethyl-5-[4-[(5-guanidinopentyl)oxy]phenyl]-1-(3-phenylpropyl)-2-pyrrolidinone] | 4700 nM | 66000 nM |  |  |
| COC(=O)C[C@@H]1C[C@@H](COc2ccc(-c3ccc(C(=N)N)cc3)cc2)NC1=O [6(2), (3S,5S)-5-[(4'-amidino-4-biphenylyl)oxymethyl]-3-[(methoxycarbonyl)methyl]-2-pyrrolidinone×1.25 HCl] | 2300 nM | 1900 nM |  |  |
| N=C(N)c1ccc(-c2ccc(N3CC(CP(=O)(O)O)CC3=O)cc2)cc1 (centres unmarked) [6(184), 1-(4'-amidino-4-biphenylyl)-4-phosphonomethyl-2-pyrrolidinone] | 420 nM | 1000 nM |  |  |
| N=C(N)c1ccc(-c2ccc(OC[C@@H]3C[C@@H](CC(=O)O)C(=O)N3c3ccccc3)cc2)cc1 [7(1), (3S,5S)-5-[(4'-amidino-4-biphenylyl)oxymethyl]-3-carboxymethyl-1-phenyl-2-pyrrolidinone-dihydrate] | 24 nM | 170 nM |  |  |
| N=C(N)c1ccc(-c2ccc(OC[C@@H]3C[C@@H](CC(=O)O)C(=O)N3)cc2)cc1 [7(3), (3S,5S)-5-[(4'-amidino-4-biphenylyl)oxymethyl]-3-carboxymethyl-2-pyrrolidinone] | 31 nM | 60 nM |  |  |
| Cc1c(OC[C@@H]2C[C@@H](CC(=O)O)C(=O)N2CCCc2ccccc2)ccc(-c2ccc(C(=N)N)cc2)c1C [7(10), (3S,5S)-5-[(4'-amidino-2,3-dimethyl-4-biphenylyl)oxymethyl]-3-carboxymethyl-1-(3-phenylpropyl)-2-pyrrolidinone-hydrate] | 50 nM | 2600 nM |  |  |
| N=C(N)c1ccc2c(c1)C(=O)c1cc(OC[C@@H]3C[C@@H](CC(=O)O)C(=O)N3CCCc3ccccc3)ccc1-2 [7(36), (3S,5S)-5-[(7-amidino-9-keto-2-fluorenyl)oxymethyl]-3-carboxymethyl-1-(3-phenylpropyl)-2-pyrrolidinone] | 41 nM | 410 nM |  |  |
| CC(=O)N(C[C@@H]1C[C@@H](CC(=O)O)C(=O)N1CCCc1ccccc1)c1ccc(-c2ccc(C(=N)N)cc2)cc1 [7(40), (3S,5S)-5-[[N-(4'-amidino-4-biphenylyl)-N-acetyl]aminomethyl]-3-carboxymethyl-1-(3-phenylpropyl)-2-pyrrolidinonehydrate] | 170 nM | 2000 nM |  |  |
| N=C(N)c1ccc(Nc2ccccc2C(=O)NC[C@@H]2C[C@@H](CC(=O)O)C(=O)N2CCCc2ccccc2)cc1 [7(41), (3S,5S)-5-[[2-[(4-amidinophenyl)amino]phenyl]carbonylaminomethyl]-3-carboxymethyl-1-(3-phenylpropyl)-2-pyrrolidinone] | 2800 nM | 19000 nM |  |  |
| N=C(N)c1cccc(C(=O)c2ccc(OC[C@@H]3C[C@@H](CC(=O)O)C(=O)N3CCCc3ccccc3)cc2)c1 [7(46), (3S,5S)-5-[[4-[(3-amidinophenyl)carbonyl]phenyl]oxymethyl]-3-carboxymethyl-1-(3-phenylpropyl)-2-pyrrolidinone] | 690 nM | 12000 nM |  |  |
| CN(C)C(=O)CN1C(=O)[C@H](CC(=O)O)C[C@H]1COc1ccc(-c2ccc(C(=N)N)cc2)cc1 [7(51), (3S,5S)-5-[(4'-amidino-4-biphenylyl)oxymethyl]-3-carboxymethyl-1-[(dimethylaminocarbonyl)methyl]-2-pyrrolidinone hydrochloride-semihydrate] | 27 nM | 80 nM |  |  |
| CC(=O)N1C[C@H](CC(=O)O)C[C@H]1COc1ccc(-c2ccc(C(=N)N)cc2)cc1 [7(56), (3S,5S)-1-acetyl-5-[(4'-amidino-4-biphenylyl)oxymethyl]-3-carboxymethyl-pyrrolidine-semihydrate] | 20 nM | 60 nM |  |  |
| CN(C)S(=O)(=O)N1C[C@H](CC(=O)O)C[C@H]1COc1ccc(-c2ccc(C(=N)N)cc2)cc1 [7(58), (3S,5S)-5-[(4'-amidino-4-biphenylyl)oxymethyl]-3-carboxymethyl-1-(dimethylaminosulphonyl)-pyrrolidine×0.25 water] | 20 nM | 210 nM |  |  |
| N=C(N)c1ccc(-c2ccc(S(=O)(=O)NC[C@@H]3C[C@@H](CC(=O)O)C(=O)N3CCCc3ccccc3)cc2)cc1 [7(70)] | 400 nM | 19000 nM |  |  |
| N=C(N)c1ccc(-c2ccc(OC[C@@H]3C[C@@H](CC(=O)O)C(=O)N3)cc2)cc1F [7(93), (3S,5S)-5-[(4'-amidino-3'-fluoro-4-biphenylyl)oxymethyl]-3-carboxymethyl-2-pyrrolidinone] | 26 nM | 100 nM |  |  |
| NCCCCc1ccc(OC[C@@H]2C[C@@H](CC(=O)O)C(=O)N2CCCc2ccccc2)cc1 [23(8), (3S,5S)-5-[[4-(4-aminobutyl)phenyl]oxymethyl]-3-carboxymethyl-1-(3-phenylpropyl)-2-pyrrolidinonesemihydrate ×1.25 HCl] | 4600 nM | 20000 nM |  |  |
| NCCCC(=O)Nc1ccc(OC[C@@H]2C[C@@H](CC(=O)O)C(=O)N2CCCc2ccccc2)cc1 [32(1), (3S,5S)-5-[[4-[(3-aminopropyl)carbonylamino]phenyl]oxymethyl]-3-carboxymethyl-1-(3-phenylpropyl)-2-pyrrolidinone] | 2200 nM | 33000 nM |  |  |
| N=C(N)c1ccc(-c2ccc(OC[C@@H]3C[C@@H](CC(=O)O)C(=O)N3CCCc3ccccc3)cc2)cc1 [Example 7, (3S,5S)-5-[(4'-Amidino-4-biphenylyl)oxymethyl)-3-carboxymethyl-1-(3-phenylpropyl)-2-pyrrolidinone-hydrate] | 32 nM | 900 nM |  |  |
| NC1CCc2cc(C(=O)NCC[C@@H]3C[C@@H](CC(=O)O)C(=O)N3CCCc3ccccc3)ccc2C1 (stereo partly drawn) [Example 32, (3S,5S)-5-[2-[(6-Amino-5,6,7,8-tetrahydro-2-naphthylcarbonyl)amino]ethyl]-3-carboxymethyl-1-(3-phenylpropyl)-2-pyrrolidinone-semihydrate] | 1200 nM | 5800 nM |  |  |
| COC(=O)C[C@@H]1C[C@@H](COc2ccc(-c3ccc(C(=N)NC(=O)OC)cc3)cc2)NC1=O [Example 70(1), (3S,5S)-5-[[4'-(N-methoxycarbonylamidino)-4biphenylyl]oxymethyl]-3-[(methoxycarbonyl)methyl]-2-pyrrolidinone] |  |  | more than 8 hours |  |
| N=C(NO)c1ccc(-c2ccc(OC[C@@H]3C[C@@H](CC(=O)O)C(=O)N3)cc2)cc1 [Example 71, (3S,5S)-3-Carboxymethyl-5-[[4'-(N-hydroxyamidino)-4biphenylyl)oxymethyl]-2-pyrrolidinone] | 4600 nM | 11000 nM |  |  |
| N=C(N)c1ccc(-c2ccc(OC[C@@H]3C[C@@H](CC(=O)O)C(=O)N3)cc2)cc1 [Example (3), (3S,5S)-5-[(4'-amidino-4-biphenylyl)oxymethyl]-3-carboxymethyl-2-pyrrolidinone] |  |  |  | > 100 mg/kg |
